# Data taken from patent US8178724B2, “Compounds for inhibition of 5-hydroxytryptamine and norepinephrine reuptake or for treatment of depression disorders, their preparation processes and uses thereof” (Shandong Luye Pharmaceutical Co., Ltd., priority 2005, dated 2012).
# What was measured:
# [1] = Beagle test of sustained release capsules (oral) versus intravenous administration; format: in vivo; details: beagles, orally administrated sustained release capsule
# Experimental: The blood samples were collected separately at 0.25, 0.5, 1, 2, 4, 6, 8, 12, 16 and 24 hours after drug administration.
# human liver cells S9 = test: Metabolism in human liver cells S9 to form the active component compound III; format: in vitro ADME; details: conversion to compound III, human liver S9, 1 mM NADPH, 37° C.
# Source text: Then the mixture was quenched with concentrated perchloric acid. After the precipitated proteins was removed by centrifuge, the supernatant was adjusted with concentrated potassium phosphate until pH was 3, and centrifuged again. The supernatant was directly injected into HPLC and analyzed.
SMILES,conversion into compound III in vivo [1],Metabolic rate (%) of compounds in liver cells within 2 hours (human liver cells S9)
COc1ccc(C(=O)Oc2ccc(C(CN(C)C)C3(O)CCCCC3)cc2)cc1.O=C(O)CCC(=O)O (centres unmarked) [4-[2-dimethylamino-1-(1-hydroxycyclohexyl)-ethyl]phenyl 4-methoxybenzoate succinate],quickly converted,
CN(C)CC(c1ccc(OC(=O)c2ccccc2)cc1)C1(O)CCCCC1.Cl (centres unmarked) [4-[2-dimethylamino-1-(1-hydroxycyclohexyl)-ethyl]phenyl benzoate hydrochloride],quickly converted,
"CN(C)CC(c1ccc(OC(=O)c2ccccc2)cc1)C1(O)CCCCC1 (centres unmarked) [Compound 2 of Example 1, 4-[2-dimethylamino-1-(1-hydroxycyclohexyl)-ethyl]phenyl Benzoate]",,96%

# More lines, now with the values ahead:
conversion into compound III in vivo [1],Metabolic rate (%) of compounds in liver cells within 2 hours (human liver cells S9),SMILES
,92%,"COc1ccc(C(=O)Oc2ccc(C(CN(C)C)C3(O)CCCCC3)cc2)cc1 (centres unmarked) [Compound 3 of Example 1, 4-[2-dimethylamino-1-(1-hydroxycyclohexyl)-ethyl]phenyl 4-methoxybenzoate]"
,88%,"CN(C)CC(c1ccc(OC(=O)c2ccc(F)cc2)cc1)C1(O)CCCCC1 (centres unmarked) [Compound 4 of Example 1, 4-[2-dimethylamino-1-(1-hydroxycyclohexyl)-ethyl]phenyl 4-fluorobenzoate]"
